Measured values taken from PubChem BioAssay AID330 (DTP/NCI, 2004).
Several values for one entry are separate records, joined by “and”; a condition that tells them apart may be missing. Identical values can stand only once. Inconclusive results and toxic doses are left out. How the source made its calls: active means survival T/C of 150% or more; inactive means T/C below 125% in these data.

Test system: P388 leukemia ip, CD2F1 mice, survival T/C
Assay: NCI In Vivo Anticancer Drug Screen. Data for tumor model P388 Leukemia (intraperitoneal) in CD2F1 (CDF1) mice
Settings: endpoint: median survival time, higher = longer survival
Summary of the method: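 Mice carrying the transplanted tumor received test compound or vehicle. Survival was recorded in each group, and the value is the treated-group measurement divided by that of the vehicle-treated control group.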

Measured: T/C

CS(=O)(=O)CS(=O)(=O)OCCCl
active: dose: 22.0 mg/kg/injection, schedule: Q01DX005 (ip), vehicle: saline 166 % of control | dose: 25.0 mg/kg/injection, schedule: Q01DX005 (ip), vehicle: dextrose 154 % of control | dose: 33.0 mg/kg/injection, schedule: Q01DX005 (ip), vehicle: other 230 % of control | dose: 33.0 mg/kg/injection, schedule: Q01DX005 (ip), vehicle: saline 198 % of control | dose: 33.0 mg/kg/injection, schedule: Q01DX005 (ip), vehicle: water 201 % of control | dose: 33.5 mg/kg/injection, schedule: Q01DX005 (ip), vehicle: saline 209 % of control | dose: 50.0 mg/kg/injection, schedule: Q01DX005 (ip), vehicle: dextrose 241 % of control and 330 % of control | dose: 50.0 mg/kg/injection, schedule: Q01DX005 (ip), vehicle: distilled water + Tween-80 250 % of control | dose: 50.0 mg/kg/injection, schedule: Q01DX005 (ip), vehicle: other 588 % of control | dose: 50.0 mg/kg/injection, schedule: Q01DX005 (ip), vehicle: saline 245 % of control and 267 % of control | dose: 50.0 mg/kg/injection, schedule: Q01DX005 (ip), vehicle: water 254 % of control and 285 % of control | dose: 50.0 mg/kg/injection, schedule: Q01DX005 (iv), vehicle: dextrose 196 % of control | dose: 75.0 mg/kg/injection, schedule: Q01DX005 (ip), vehicle: dextrose 582 % of control | dose: 75.0 mg/kg/injection, schedule: Q01DX005 (ip), vehicle: other 588 % of control | dose: 75.0 mg/kg/injection, schedule: Q01DX005 (ip), vehicle: saline 156 % of control | dose: 75.0 mg/kg/injection, schedule: Q01DX005 (ip), vehicle: water 294 % of control | dose: 100.0 mg/kg/injection, schedule: Q01DX005 (ip), vehicle: dextrose 535 % of control | dose: 100.0 mg/kg/injection, schedule: Q01DX005 (ip), vehicle: distilled water + Tween-80 535 % of control | dose: 100.0 mg/kg/injection, schedule: Q01DX005 (ip), vehicle: other 588 % of control | dose: 100.0 mg/kg/injection, schedule: Q01DX005 (ip), vehicle: saline 151 % of control and 200 % of control | dose: 100.0 mg/kg/injection, schedule: Q01DX005 (ip), vehicle: water 294 % of control
inactive: dose: 6.25 mg/kg/injection, schedule: Q01DX005 (ip), vehicle: dextrose 109 % of control | dose: 6.25 mg/kg/injection, schedule: Q01DX005 (ip), vehicle: distilled water + Tween-80 114 % of control | dose: 6.25 mg/kg/injection, schedule: Q01DX005 (iv), vehicle: dextrose 109 % of control | dose: 10.0 mg/kg/injection, schedule: Q01DX005 (ip), vehicle: saline 121 % of control | dose: 12.5 mg/kg/injection, schedule: Q01DX005 (iv), vehicle: dextrose 118 % of control

[I][Hg][CH2]C1OCCOC1[CH2][Hg][I] (stereo not given)
inactive: dose: 100.0 mg/kg/injection, schedule: Q04DX003 (ip), vehicle: saline with Tween-80 118 % of control | dose: 200.0 mg/kg/injection, schedule: Q04DX003 (ip), vehicle: saline with Tween-80 118 % of control | dose: 400.0 mg/kg/injection, schedule: Q04DX003 (ip), vehicle: saline with Tween-80 90 % of control

COC(=O)c1ccc(C)c(N(CCO)CCO)c1
inactive: dose: 50.0 mg/kg/injection, schedule: Q01DX005 (ip), vehicle: saline with Tween-80 104 % of control | dose: 100.0 mg/kg/injection, schedule: Q01DX005 (ip), vehicle: saline with Tween-80 104 % of control | dose: 200.0 mg/kg/injection, schedule: Q01DX005 (ip), vehicle: saline with Tween-80 104 % of control

O=C(O)COc1c2occc2cc2ccc(=O)oc12
inactive: dose: 60.0 mg/kg/injection, schedule: Q01DX005 (ip), vehicle: saline with Tween-80 97 % of control | dose: 120.0 mg/kg/injection, schedule: Q01DX005 (ip), vehicle: saline with Tween-80 96 % of control | dose: 240.0 mg/kg/injection, schedule: Q01DX005 (ip), vehicle: saline with Tween-80 100 % of control
